Source: US12435058B2, “KIF18A inhibitors” (AMGEN INC., priority 2019, dated 2025)

Molecular target: T1, Recombinant human KIF18A (1-467 His-tagged) protein (Homo sapiens, UniProt Q8NI77)
T1 construct: Recombinant human KIF18A (1-467 His-tagged) protein; His; made in house
Assay: KIF18A Enzyme Assay (microtubule-stimulated ATPase activity, ADP-Glo)
Format: biochemical
Conditions: KIF18A protein 30 nM, ATP 75 μM (at Km), 30 μg/mL pig microtubules, ADP-Glo luminescence
Description: For compounds in Table A, the following assay conditions were employed:
KIF18A Enzyme Assay: Microtubule-stimulated ATPase activity assay is used to measure KIF18A enzyme activity after treatment with compound. Compounds were 2-fold serially diluted in DMSO (Sigma Inc) over 22-point concentration range. Recombinant human KIF18A (1-467 His-tagged) protein was expressed using a baculovirus system and purified by affinity chromatography by Amgen Inc. Concentrations of KIF18A protein, microtubules (MT), and ATP in the reaction were optimized for standardized homogenous enzyme assay using ADP-Glom Kinase/ATPase Assay Kit (Promega Inc). The assay measures ADP formed from the ATPase reaction. […] Read luminescence using EnVision microplate reader with ultra-luminescence module (Perkin Elmer Inc). Concentration-response curve-fitting and IC50 determination was performed using Genedata Screener Software (Standard 15.0.1, Genedata Inc) with a four-parameter logistic regression fit model.

T1 sequence (Q8NI77 1-467): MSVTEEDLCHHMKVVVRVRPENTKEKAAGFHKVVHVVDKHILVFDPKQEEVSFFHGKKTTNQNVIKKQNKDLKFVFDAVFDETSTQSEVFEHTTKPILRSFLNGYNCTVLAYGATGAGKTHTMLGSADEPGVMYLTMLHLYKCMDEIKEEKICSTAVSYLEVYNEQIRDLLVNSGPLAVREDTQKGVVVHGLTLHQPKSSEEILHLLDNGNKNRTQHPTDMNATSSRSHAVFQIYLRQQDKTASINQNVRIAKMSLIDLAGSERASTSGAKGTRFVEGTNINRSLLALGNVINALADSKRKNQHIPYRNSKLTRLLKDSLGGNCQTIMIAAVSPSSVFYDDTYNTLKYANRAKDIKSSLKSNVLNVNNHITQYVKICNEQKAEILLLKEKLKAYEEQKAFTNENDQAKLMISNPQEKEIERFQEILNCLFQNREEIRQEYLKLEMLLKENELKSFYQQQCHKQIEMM
T1 sequence (P02550 whole entry partner): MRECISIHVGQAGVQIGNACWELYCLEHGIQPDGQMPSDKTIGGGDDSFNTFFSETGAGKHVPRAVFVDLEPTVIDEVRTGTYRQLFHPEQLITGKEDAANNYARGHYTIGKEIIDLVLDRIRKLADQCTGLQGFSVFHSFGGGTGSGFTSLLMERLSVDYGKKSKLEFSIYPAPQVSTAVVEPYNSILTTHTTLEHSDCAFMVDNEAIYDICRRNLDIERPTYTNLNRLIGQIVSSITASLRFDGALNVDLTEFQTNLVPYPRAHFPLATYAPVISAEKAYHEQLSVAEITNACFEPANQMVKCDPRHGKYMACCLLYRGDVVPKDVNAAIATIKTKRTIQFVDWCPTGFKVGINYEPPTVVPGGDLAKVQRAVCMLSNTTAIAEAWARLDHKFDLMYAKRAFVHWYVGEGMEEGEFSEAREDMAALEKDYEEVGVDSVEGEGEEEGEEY
T1 sequence (P02554 whole entry partner): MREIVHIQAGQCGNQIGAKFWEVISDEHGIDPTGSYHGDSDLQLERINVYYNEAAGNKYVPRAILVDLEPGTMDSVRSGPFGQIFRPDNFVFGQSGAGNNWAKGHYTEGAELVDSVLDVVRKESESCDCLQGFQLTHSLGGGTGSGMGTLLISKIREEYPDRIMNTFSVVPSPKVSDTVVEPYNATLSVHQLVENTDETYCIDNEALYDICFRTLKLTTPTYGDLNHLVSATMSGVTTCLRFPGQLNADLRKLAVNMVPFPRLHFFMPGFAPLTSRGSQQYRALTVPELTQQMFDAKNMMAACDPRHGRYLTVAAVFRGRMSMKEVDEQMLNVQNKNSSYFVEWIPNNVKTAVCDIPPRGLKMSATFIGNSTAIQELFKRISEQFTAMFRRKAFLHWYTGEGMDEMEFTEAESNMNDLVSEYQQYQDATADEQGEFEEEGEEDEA

Row | IC50 | SMILES
1 | 67 nM | CC(C)(CO)Nc1cnc(C(=O)Nc2cccc(S(=O)(=O)[C@H]3CCC(F)(F)C3)c2)c(N2CCC3(CC2)CC3)n1 (single isomer, unassigned) [Example 102-1]
2 | 111 nM | CC(C)(CO)Nc1cnc(C(=O)Nc2cccc(S(=O)(=O)[C@@H]3CCC(F)(F)C3)c2)c(N2CCC3(CC2)CC3)n1 (single isomer, unassigned) [Example 102-2]
3 | 174 nM | CC(C)(C)NS(=O)(=O)c1cccc(NC(=O)c2ncc([C@@](C)(O)C(F)(F)F)nc2N2CCC3(CC2)CC3)c1 (single isomer, unassigned) [Example 105-1]
4 | 356 nM | CC(C)(C)NS(=O)(=O)c1cccc(NC(=O)c2ncc([C@](C)(O)C(F)(F)F)nc2N2CCC3(CC2)CC3)c1 (single isomer, unassigned) [Example 105-2]
5 | 82 nM | CC(C)(C)NS(=O)(=O)c1cccc(NC(=O)c2ncc(NC(C)(C)CO)nc2N2CCC3(CC2)CC3)c1 [Example 100, N-(3-(N-(tert-Butyl)sulfamoyl)phenyl)-5-((1-hydroxy-2-methylpropan-2-yl)amino)-3-(6-azaspiro[2.5]octan-6-yl)pyrazine-2-carboxamide]
6 | 177 nM | CC1CCN(c2nc(NC(C)(C)CO)cnc2C(=O)Nc2cccc(S(=O)(=O)NC(C)(C)C)c2)CC1 [Example 100-1, N-(3-(N-(tert-butyl)sulfamoyl)phenyl)-5-((1-hydroxy-2-methylpropan-2-yl)amino)-3-(4-methylpiperidin-1-yl)pyrazine-2-carboxamide]
7 | 342 nM | CC(C)(C)NS(=O)(=O)c1cccc(NC(=O)c2ncc(NC(C)(C)CO)nc2N2CCC(F)(F)CC2)c1 [Example 100-2, N-(3-(N-(tert-butyl)sulfamoyl)phenyl)-3-(4,4-difluoropiperidin-1-yl)-5-((1-hydroxy-2-methylpropan-2-yl)amino)pyrazine-2-carboxamide]
8 | 455 nM | CC(C)(C)NS(=O)(=O)c1cccc(NC(=O)c2ncc(NC(C)(C)CO)nc2N2CCC(C(F)(F)F)CC2)c1 [Example 100-3, N-(3-(N-(tert-butyl)sulfamoyl)phenyl)-5-((1-hydroxy-2-methylpropan-2-yl)amino)-3-(4-(trifluoromethyl)piperidin-1-yl)pyrazine-2-carboxamide]
9 | 133 nM | CCC1CCN(c2nc(NC(C)(C)CO)cnc2C(=O)Nc2cccc(S(=O)(=O)NC(C)(C)C)c2)CC1 [Example 100-4, N-(3-(N-(tert-butyl)sulfamoyl)phenyl)-3-(4-ethylpiperidin-1-yl)-5-((1-hydroxy-2-methylpropan-2-yl)amino)pyrazine-2-carboxamide]
10 | 190 nM | CC1(C)CCN(c2nc(NC(C)(C)CO)cnc2C(=O)Nc2cccc(S(=O)(=O)NC(C)(C)C)c2)CC1 [Example 100-5, N-(3-(N-(tert-butyl)sulfamoyl)phenyl)-3-(4,4-dimethylpiperidin-1-yl)-5-((1-hydroxy-2-methylpropan-2-yl)amino)pyrazine-2-carboxamide]
11 | 319 nM | CC(C)C1CCN(c2nc(NC(C)(C)CO)cnc2C(=O)Nc2cccc(S(=O)(=O)NC(C)(C)C)c2)CC1 [Example 100-6, N-(3-(N-(tert-butyl)sulfamoyl)phenyl)-5-((1-hydroxy-2-methylpropan-2-yl)amino)-3-(4-isopropylpiperidin-1-yl)pyrazine-2-carboxamide]
12 | 788 nM | CC(C)(C)NS(=O)(=O)c1cccc(NC(=O)c2ncc(NC(C)(C)CO)nc2N2CCC(C(C)(C)C)CC2)c1 [Example 100-7, 3-(4-(tert-butyl)piperidin-1-yl)-N-(3-(N-(tert-butyl)sulfamoyl)phenyl)-5-((1-hydroxy-2-methylpropan-2-yl)amino)pyrazine-2-carboxamide]
13 | 163 nM | CCC(C)C1CCN(c2nc(NC(C)(C)CO)cnc2C(=O)Nc2cccc(S(=O)(=O)NC(C)(C)C)c2)CC1 (stereo not shown) [Example 100-8, 3-(4-(sec-butyl)piperidin-1-yl)-N-(3-(N-(tert-butyl)sulfamoyl)phenyl)-5-((1-hydroxy-2-methylpropan-2-yl)amino)pyrazine-2-carboxamide]
14 | 118 nM | CCCC1CCN(c2nc(NC(C)(C)CO)cnc2C(=O)Nc2cccc(S(=O)(=O)NC(C)(C)C)c2)CC1 [Example 100-9, N-(3-(N-(tert-butyl)sulfamoyl)phenyl)-5-((1-hydroxy-2-methylpropan-2-yl)amino)-3-(4-propylpiperidin-1-yl)pyrazine-2-carboxamide]
15 | 221 nM | CC(C)(C)NS(=O)(=O)c1cccc(NC(=O)c2ncc(NC(C)(C)CO)nc2N2CCC(C3CC3)CC2)c1 [Example 100-10, N-(3-(N-(tert-butyl)sulfamoyl)phenyl)-3-(4-cyclopropylpiperidin-1-yl)-5-((1-hydroxy-2-methylpropan-2-yl)amino)pyrazine-2-carboxamide]
16 | 1390 nM | COCC1CCN(c2nc(NC(C)(C)CO)cnc2C(=O)Nc2cccc(S(=O)(=O)NC(C)(C)C)c2)CC1 [Example 100-11, N-(3-(N-(tert-butyl)sulfamoyl)phenyl)-5-((1-hydroxy-2-methylpropan-2-yl)amino)-3-(4-(methoxymethyl)piperidin-1-yl)pyrazine-2-carboxamide]
17 | 931 nM | CC(C)(C)NS(=O)(=O)c1cccc(NC(=O)c2ncc(NC(C)(C)CO)nc2N2CC3(CCC3)C2)c1 [Example 100-12, N-(3-(N-(tert-butyl)sulfamoyl)phenyl)-5-((1-hydroxy-2-methylpropan-2-yl)amino)-3-(2-azaspiro[3.3]heptan-2-yl)pyrazine-2-carboxamide]
18 | 410 nM | CC(C)(C)NS(=O)(=O)c1cccc(NC(=O)c2ncc(NC(C)(C)CO)nc2N2CC3(CCCCC3)C2)c1 [Example 100-13, N-(3-(N-(tert-butyl)sulfamoyl)phenyl)-5-((1-hydroxy-2-methylpropan-2-yl)amino)-3-(2-azaspiro[3.5]nonan-2-yl)pyrazine-2-carboxamide]
19 | 1380 nM | CC(C)(C)NS(=O)(=O)c1cccc(NC(=O)c2ncc(NC(C)(C)CO)nc2N2CCC3(CCOCC3)CC2)c1 [Example 100-14, N-(3-(N-(tert-butyl)sulfamoyl)phenyl)-5-((1-hydroxy-2-methylpropan-2-yl)amino)-3-(3-oxa-9-azaspiro[5.5]undecan-9-yl)pyrazine-2-carboxamide]
20 | 77 nM | CC(C)(C)NS(=O)(=O)c1cccc(NC(=O)c2ncc(NC(C)(C)CO)nc2N2CCC3(CCC3)CC2)c1 [Example 100-15, N-(3-(N-(tert-butyl)sulfamoyl)phenyl)-5-((1-hydroxy-2-methylpropan-2-yl)amino)-3-(7-azaspiro[3.5]nonan-7-yl)pyrazine-2-carboxamide]
21 | 215 nM | CC(C)(C)NS(=O)(=O)c1cccc(NC(=O)c2ncc(NC(C)(C)CO)nc2N2CCC3(CC2)CC(F)(F)C3)c1 [Example 100-16, N-(3-(N-(tert-butyl)sulfamoyl)phenyl)-3-(2,2-difluoro-7-azaspiro[3.5]nonan-7-yl)-5-((1-hydroxy-2-methylpropan-2-yl)amino)pyrazine-2-carboxamide]
22 | 129 nM | CC(C)(C)NS(=O)(=O)c1cccc(NC(=O)c2ncc(NC(C)(C)CO)nc2N2CCC3(CCCC3)CC2)c1 [Example 100-17, N-(3-(N-(tert-butyl)sulfamoyl)phenyl)-5-((1-hydroxy-2-methylpropan-2-yl)amino)-3-(8-azaspiro[4.5]decan-8-yl)pyrazine-2-carboxamide]
23 | 231 nM | Cc1cc(NC(=O)c2ncc(NC(C)(C)CO)nc2N2CCC3(CC2)CC3)cc(S(=O)(=O)NC(C)(C)C)c1 [Example 101, N-(3-(N-(tert-Butyl)sulfamoyl)-5-methylphenyl)-5-((1-hydroxy-2-methylpropan-2-yl)amino)-3-(6-azaspiro[2.5]octan-6-yl)pyrazine-2-carboxamide]
24 | 108 nM | CC(C)(CO)Nc1cnc(C(=O)Nc2cccc(S(=O)(=O)C(C)(C)C(F)(F)F)c2)c(N2CCC3(CC2)CC3)n1 [Example 101-1, 5-((1-hydroxy-2-methylpropan-2-yl)amino)-3-(6-azaspiro[2.5]octan-6-yl)-N-(3-((1,1,1-trifluoro-2-methylpropan-2-yl)sulfonyl)phenyl)pyrazine-2-carboxamide]
25 | 218 nM | CC(C)(CO)Nc1cnc(C(=O)Nc2cccc(S(=O)(=O)C(C)(C)C)c2)c(N2CCC3(CC2)CC3)n1 [Example 101-2, N-(3-(tert-butylsulfonyl)phenyl)-5-((1-hydroxy-2-methylpropan-2-yl)amino)-3-(6-azaspiro[2.5]octan-6-yl)pyrazine-2-carboxamide]
26 | 204 nM | CC(C)(CO)Nc1cnc(C(=O)Nc2cccc(S(=O)(=O)C3(C)CCC3)c2)c(N2CCC3(CC2)CC3)n1 [Example 101-3, 5-((1-hydroxy-2-methylpropan-2-yl)amino)-N-(3-((1-methylcyclobutyl)sulfonyl)phenyl)-3-(6-azaspiro[2.5]octan-6-yl)pyrazine-2-carboxamide]
27 | 172 nM | CC(C)(C)NS(=O)(=O)c1cc(F)cc(NC(=O)c2ncc(NC(C)(C)CO)nc2N2CCC3(CC2)CC3)c1 [Example 101-4, N-(3-(N-(tert-butyl)sulfamoyl)-5-fluorophenyl)-5-((1-hydroxy-2-methylpropan-2-yl)amino)-3-(6-azaspiro[2.5]octan-6-yl)pyrazine-2-carboxamide]
28 | 527 nM | CC(C)(C)NS(=O)(=O)c1cccc(NC(=O)c2ncc(NC(C)(C)CO)nc2N2CCC3(CC2)CC3)c1F [Example 101-5, N-(3-(N-(tert-butyl)sulfamoyl)-2-fluorophenyl)-5-((1-hydroxy-2-methylpropan-2-yl)amino)-3-(6-azaspiro[2.5]octan-6-yl)pyrazine-2-carboxamide]
